From patent US20100267561A1, “HERBICIDAL PYRIDAZINONE DERIVATIVES” (priority 2007, published 2010)

Assays:
Type in all cases: in vivo
[1] = test system: large crabgrass (Digitaria sanguinalis); assay: Test B pre-/postemergence plant response; conditions: for Plant response rating, Crabgrass, Large: Postemergence
Source text: (§1) Seeds of plant species selected from blackgrass (Alopecurus myosuroides), downy bromegrass (Bromus tectorum), green foxtail (Setaria viridis), Italian ryegrass (Lolium multiflorum), wheat (Triticum aestivum), wild oat (Avena fatua), catchweed bedstraw (Galium aparine), bermudagrass (Cynodon dactylon), surinam grass (Brachiaria decumbens), cocklebur (Xanthium strumarium), corn (Zea mays), large crabgrass (Digitaria sanguinalis), woolly cupgrass (Eriochloa villosa), giant foxtail (Setaria faberii), goosegrass (Eleusine indica), johnsongrass (Sorghum halepense), kochia (Kochia scoparia), lambsquarters (Chenopodium album), morningglory (Ipomoea coccinea), eastern black (E.B.) nightshade (Solanum ptycanthum), yellow nutsedge (Cyperus esculentus), pigweed (Amaranthus retroflexus), common ragweed (Ambrosia elation), Russian thistle (Salsola iberica), soybean (Glycine max), common (oilseed) sunflower (Helianthus annuus), and velvetleaf (Abutilon theophrasti) were planted and treated preemergence with test chemicals formulated in a non-phytotoxic solvent mixture which included a surfactant.
(§2) At the same time, plants selected from these crop and weed species and also winter barley (Hordeum vulgare), canarygrass (Phalaris minor), chickweed (Stellaria media) and windgrass (Apera spica-venti) were treated with postemergence applications of some of the test chemicals formulated in the same manner. Plants ranged in height from 2 to 18 cm (1- to 4-leaf stage) for postemergence treatments.
(§3) Plant species in the flooded paddy test consisted of rice (Oryza sativa), umbrella sedge (Cyperus difformis), ducksalad (Heteranthera limosa) and barnyardgrass (Echinochloa crus-galli) grown to the 2-leaf stage for testing. At time of treatment, test pots were flooded to 3 cm above the soil surface, treated by application of test compounds directly to the paddy water, and then maintained at that water depth for the duration of the test. Treated plants and controls were maintained in a greenhouse for 13 to 15 days, after which time all species were compared to controls and visually evaluated. Plant response ratings, summarized in Table B, are based on a scale of 0 to 100 where 0 is no effect and 100 is complete control. A dash (-) response means no test result.

[2] = test system: velvetleaf (Abutilon theophrasti); assay: Test B pre-/postemergence plant response; conditions: for Velvetleaf plant response rating: postemergence, 0-100 scale; for Plant response rating, Velvetleaf: Postemergence
Source text: as §1, §2, §3

[3] = test system: goosegrass (Eleusine indica); assay: Test B pre-/postemergence plant response; conditions: for Goosegrass plant response rating: postemergence, 0-100 scale; for Plant response rating, Goosegrass: Postemergence
Source text: as §1, §2, §3

[4] = test system: woolly cupgrass (Eriochloa villosa); assay: Test B pre-/postemergence plant response; conditions: for Plant response rating, Cupgrass, Woolly: Postemergence
Source text: as §1, §2, §3

[5] = test system: johnsongrass (Sorghum halepense); assay: Test B pre-/postemergence plant response; conditions: for Johnsongrass plant response rating: postemergence, 0-100 scale; for Plant response rating, Johnsongrass: Postemergence
Source text: as §1, §2, §3

[6] = test system: pigweed (Amaranthus retroflexus); assay: Test B pre-/postemergence plant response; conditions: for Pigweed plant response rating: postemergence, 0-100 scale; for Plant response rating, Pigweed: Postemergence
Source text: as §1, §2, §3

[7] = test system: giant foxtail (Setaria faberii); assay: Test B pre-/postemergence plant response; conditions: for Plant response rating, Foxtail, Giant: Postemergence
Source text: as §1, §2, §3

[8] = test system: common ragweed (Ambrosia elation); assay: Test B pre-/postemergence plant response; conditions: for Ragweed plant response rating: postemergence, 0-100 scale; for Plant response rating, Ragweed: Postemergence
Source text: as §1, §2, §3

wild oat (Avena fatua) = assay: Test B pre-/postemergence plant response; conditions: for Oat, Wild plant response rating: postemergence, 0-100 scale; for Plant response rating, Oat, Wild: Postemergence
Source text: as §1, §2, §3

[9] = test system: green foxtail (Setaria viridis); assay: Test B pre-/postemergence plant response; conditions: for Plant response rating, Foxtail, Green: Postemergence
Source text: as §1, §2, §3

[10] = test system: ducksalad (Heteranthera limosa); assay: Test B flooded paddy test plant response
How it was run: (§4)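 Compounds were added directly to paddy water over 2-leaf-stage plants in pots flooded 3 cm above soil, water depth maintained. Visual injury scored against controls after 13 to 15 days in greenhouse, 0 (none) to 100 (complete control); dash indicates no result.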

rice (Oryza sativa) = assay: Test B flooded paddy test plant response
How it was run: as §4

[11] = 8 g ai/ha, postemergence, 0-100 scale
[12] = 62 g ai/ha, scale 0 to 100, 0 no effect, 100 complete control
[13] = Flood (flooded paddy test), 62 g ai/ha, scale 0 to 100, 0 no effect, 100 complete control
[14] = Flood (flooded paddy test), 125 g ai/ha, scale 0 to 100, 0 no effect, 100 complete control
[15] = Flood (flooded paddy test), 250 g ai/ha, scale 0 to 100, 0 no effect, 100 complete control
[16] = Flood, 31 g ai/ha, scale 0 to 100

How did the “Crabgrass, Large plant response rating” value [1, 11] turn out when `COCc1cc(-c2ccc(Br)cc2)nn1-c1c(O)cnn(C)c1=O` [Compound 68] was run?
The value was 20.

And the “Plant response rating, Crabgrass, Large” value ([1]; 16 g ai/ha, scale 0 to 100)?
Its value is 60.

What about the “Plant response rating, Crabgrass, Large” value ([1]; 31 g ai/ha, scale 0 to 100) of the same molecule?
The value was 80.

What about the “Plant response rating, Crabgrass, Large” value [1, 12] of the same molecule?
Its value is 85.

What about the “Velvetleaf plant response rating” value ([2]; 8 g ai/ha) of the same molecule?
Its value is 0.

And the “Velvetleaf plant response rating” value ([2]; 16 g ai/ha)?
Its value is 0.

What about the “Plant response rating, Velvetleaf” value ([2]; 31 g ai/ha, scale 0 to 100) of the same molecule?
The value was 0.

What about the “Plant response rating, Velvetleaf” value [2, 12] of the same molecule?
Its value is 0.

And the “Goosegrass plant response rating” value ([3]; 8 g ai/ha)?
The value was 0.

And the “Goosegrass plant response rating” value ([3]; 16 g ai/ha)?
Its value is 0.

What about the “Plant response rating, Goosegrass” value ([3]; 31 g ai/ha, scale 0 to 100) of the same molecule?
The value was 0.

And the “Plant response rating, Goosegrass” value [3, 12]?
The value was 5.

And the “Cupgrass, Woolly plant response rating” value [4, 11]?
The value was 0.

And the “Plant response rating, Cupgrass, Woolly” value ([4]; 16 g ai/ha, scale 0 to 100)?
The value was 0.

What about the “Plant response rating, Cupgrass, Woolly” value ([4]; 31 g ai/ha, scale 0 to 100) of the same molecule?
Its value is 30.

What about the “Plant response rating, Cupgrass, Woolly” value [4, 12] of the same molecule?
Its value is 60.

And the “Johnsongrass plant response rating” value ([5]; 8 g ai/ha)?
The value was 0.

And the “Johnsongrass plant response rating” value ([5]; 16 g ai/ha)?
Its value is 0.

What about the “Plant response rating, Johnsongrass” value ([5]; 31 g ai/ha, scale 0 to 100) of the same molecule?
The value was 0.

And the “Plant response rating, Johnsongrass” value [5, 12]?
The value was 30.

And the “Pigweed plant response rating” value ([6]; 8 g ai/ha)?
Its value is 0.

What about the “Pigweed plant response rating” value ([6]; 16 g ai/ha) of the same molecule?
The value was 0.

And the “Plant response rating, Pigweed” value ([6]; 31 g ai/ha, scale 0 to 100)?
The value was 0.

What about the “Plant response rating, Pigweed” value [6, 12] of the same molecule?
Its value is 0.

And the “Foxtail, Giant plant response rating” value [7, 11]?
Its value is 10.

And the “Plant response rating, Foxtail, Giant” value ([7]; 16 g ai/ha, scale 0 to 100)?
Its value is 60.

And the “Plant response rating, Foxtail, Giant” value ([7]; 31 g ai/ha, scale 0 to 100)?
Its value is 65.

And the “Plant response rating, Foxtail, Giant” value [7, 12]?
Its value is 90.

What about the “Ragweed plant response rating” value ([8]; 8 g ai/ha) of the same molecule?
Its value is 0.

What about the “Ragweed plant response rating” value ([8]; 16 g ai/ha) of the same molecule?
The value was 0.

What about the “Plant response rating, Ragweed” value ([8]; 31 g ai/ha, scale 0 to 100) of the same molecule?
The value was 0.

And the “Plant response rating, Ragweed” value [8, 12]?
Its value is 0.

And the “Oat, Wild plant response rating” value (wild oat (Avena fatua); 8 g ai/ha)?
Its value is 0.

What about the “Oat, Wild plant response rating” value (wild oat (Avena fatua); 16 g ai/ha) of the same molecule?
The value was 0.

And the “Plant response rating, Oat, Wild” value (wild oat (Avena fatua); 31 g ai/ha, scale 0 to 100)?
Its value is 5.

And the “Plant response rating, Oat, Wild” value (wild oat (Avena fatua); [12])?
Its value is 40.

And the “Foxtail, Green plant response rating” value [9, 11]?
The value was 10.

And the “Plant response rating, Foxtail, Green” value ([9]; 16 g ai/ha, scale 0 to 100)?
The value was 50.

What about the “Plant response rating, Foxtail, Green” value ([9]; 31 g ai/ha, scale 0 to 100) of the same molecule?
Its value is 60.

What about the “Plant response rating, Foxtail, Green” value [9, 12] of the same molecule?
The value was 95.

And the “Plant response rating, Ducksalad” value [10, 13]?
Its value is 0.

And the “Plant response rating, Ducksalad” value [10, 14]?
Its value is 0.

What about the “Plant response rating, Ducksalad” value [10, 15] of the same molecule?
Its value is 0.

And the “Plant response rating, Ducksalad” value [10, 16]?
The value was 0.

What about the “Plant response rating, Rice” value (rice (Oryza sativa); [13]) of the same molecule?
Its value is 0.

What about the “Plant response rating, Rice” value (rice (Oryza sativa); [14]) of the same molecule?
The value was 0.

What about the “Plant response rating, Rice” value (rice (Oryza sativa); [15]) of the same molecule?
The value was 0.

And the “Plant response rating, Rice” value (rice (Oryza sativa); [16])?
Its value is 0.
